Laboratory results published in ChEMBL document CHEMBL5352397, “Exploring gabosine and chlorogentisyl alcohol derivatives from a marine-derived fungus as EcGUS inhibitors with informatic assisted approaches” (Eur J Med Chem, 2022).
Active and inactive are the calls of the source. The calls are words filed in the database; no cut-off is given here.

Experiments:
[1] = biological target: Beta-glucuronidase (Escherichia coli (strain K12)) (UniProt P05804); test: Inhibition of Escherichia coli beta-glucuronidase assessed as reduction of p-nitrophenol release using beta-PNPG as substrate at 10 uM incubated for 30 mins by Spectra max microplate reader analysis relative to control
Chain of Beta-glucuronidase (Escherichia coli (strain K12)) (P05804 whole entry, looked up): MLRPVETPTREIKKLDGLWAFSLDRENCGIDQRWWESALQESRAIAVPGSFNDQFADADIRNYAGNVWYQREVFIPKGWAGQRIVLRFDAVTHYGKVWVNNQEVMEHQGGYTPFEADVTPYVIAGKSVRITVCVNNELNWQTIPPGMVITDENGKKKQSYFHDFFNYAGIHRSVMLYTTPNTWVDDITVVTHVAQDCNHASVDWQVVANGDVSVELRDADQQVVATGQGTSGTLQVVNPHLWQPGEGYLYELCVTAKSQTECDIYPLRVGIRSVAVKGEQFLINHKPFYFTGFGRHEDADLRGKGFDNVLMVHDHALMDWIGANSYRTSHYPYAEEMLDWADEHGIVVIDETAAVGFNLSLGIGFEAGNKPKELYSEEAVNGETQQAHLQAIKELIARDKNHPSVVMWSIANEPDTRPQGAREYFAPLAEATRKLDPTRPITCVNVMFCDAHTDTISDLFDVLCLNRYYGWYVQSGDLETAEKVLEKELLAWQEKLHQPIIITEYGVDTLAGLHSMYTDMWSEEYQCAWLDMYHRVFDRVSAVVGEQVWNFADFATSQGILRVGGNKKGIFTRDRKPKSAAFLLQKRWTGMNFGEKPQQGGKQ

NAMALVA = test: Antiproliferative activity against human NAMALVA cells assessed as cell viability at 20 uM incubated for 48 hrs by MTT assay; assay type: functional; conditions: read-out: Activity
[2] = Antiproliferative activity against human U266B cells assessed as cell viability at 20 uM incubated for 48 hrs by MTT assay; assay type: functional; conditions: read-out: Activity
Beta-glucuronidase [3] = biological target: T1, Beta-glucuronidase (Escherichia coli (strain K12), UniProt P05804); test: Inhibition of Escherichia coli beta-glucuronidase assessed as reduction of p-nitrophenol release using beta-PNPG as substrate incubated for 30 mins by Spectra max microplate reader analysis
T1 sequence (P05804 whole entry): as the sequence (P05804 whole entry, looked up) above

Beta-glucuronidase [4] = biological target: T1, Beta-glucuronidase; test: Inhibition of Escherichia coli beta-glucuronidase assessed as inhibition constant using beta-PNPG as substrate incubated for 30 mins by Lineweaver-Burk plot analysis
[5] = biological target: Beta-glucuronidase (Escherichia coli (strain K12)) (UniProt P05804); test: Inhibition of Escherichia coli beta-glucuronidase using beta-PNPG as substrate at 2 to 8 uM incubated for 30 mins by Lineweaver-Burk plot analysis; conditions: dose 2-8 µM
[6] = biological target: Beta-glucuronidase (Escherichia coli (strain K12)) (UniProt P05804); test: Inhibition of Escherichia coli beta-glucuronidase using beta-PNPG as substrate at 50 to 100 uM incubated for 30 mins by Lineweaver-Burk plot analysis; conditions: dose 50-100 µM
[7] = biological target: Beta-glucuronidase (Escherichia coli (strain K12)) (UniProt P05804); test: Non-competitive inhibition of Escherichia coli beta-glucuronidase assessed as reduction of p-nitrophenol release using beta-PNPG as substrate at 10 uM incubated for 30 mins by Spectra max microplate reader analysis relative to control
Beta-glucuronidase [8] = biological target: T1, Beta-glucuronidase; test: Non-competitive inhibition of Escherichia coli beta-glucuronidase assessed as inhibition constant using beta-PNPG as substrate incubated for 30 mins by Lineweaver-Burk plot analysis
Beta-glucuronidase [9] = biological target: T1, Beta-glucuronidase; test: Non-competitive inhibition of Escherichia coli beta-glucuronidase assessed as reduction of p-nitrophenol release using beta-PNPG as substrate incubated for 30 mins by Spectra max microplate reader analysis

| SMILES | inhibition [1] [%] | viability at 20 µM (NAMALVA) [%] | viability at 20 µM [2] [%] | IC50 (Beta-glucuronidase [3]) [µM] | Ki (Beta-glucuronidase [4]) [µM] | further results |
| --- | --- | --- | --- | --- | --- | --- |
| C[C@@H]1C[C@@H](O)[C@H](O[C@@H]2[C@@H](O)C=C(Cl)C(=O)[C@]23CCc2cc(O)cc(Cl)c2O3)C[C@@H]1O | 15.3 |  |  |  |  |  |
| O=C1C(Cl)=C[C@H](O)[C@@H](O)[C@]12CCc1cc(O)cc(Cl)c1O2 | 49.9 |  |  |  |  |  |
| CC1=C[C@@H](O)[C@@H](O)[C@H](Cl)C1=O | 100 | 113 | 105 | 1.01 | 0.67 |  |
| CCCCO[C@@H]1C(=O)C(C)=C[C@@H](O)[C@H]1O | 86.5 | 91.7 | 109 | 4.61 | 7.32 |  |
| Cc1cc(O)c(Cc2cc(O)cc(Cl)c2O)c(=O)o1 | 20.1 |  |  |  |  |  |
| Cc1cccc(O)c1C(=O)O[C@@H]1C(=O)C(CO)=C[C@@H](O)[C@H]1O | 27.6 |  |  |  |  |  |
| O=c1[nH]cc(F)c(=O)[nH]1 [FLUOROURACIL] |  | 11.3 | 0 |  |  |  |
| O=Cc1cc(O)cc(Cl)c1O | 69 |  |  |  |  |  |
| O=C1C(Cc2cc(O)cc(Cl)c2O)=C[C@H](O)[C@@H](O)[C@@]12CCc1cc(O)c(Cl)c(Cl)c1O2 | 98 | 83.9 | 95 | 0.24 | 1.09 | inhibition [5]: Active |
| Cc1cc2c(c(=O)o1)C[C@@H]1C(=O)C(Cl)=C[C@H](O)[C@H]1O2 | 55.1 |  |  |  |  |  |
| O=C1C(COCc2cc(O)cc(Cl)c2O)=C[C@@H](O)[C@@H](O)[C@@H]1Cl | 87.1 | 65.1 | 105 | 1.91 | 0.86 |  |
| C[C@H]1C[C@H](O)[C@@H](O)C[C@H]1OCc1cc(O)cc(Cl)c1O | 92.8 | 71.6 | 115 | 0.63 | 1.64 |  |
| Cc1cc2c(c(=O)o1)C[C@H]1[C@@H](O)[C@H](O)[C@H](O)[C@H]3c4c(cc(C)oc4=O)O[C@]31O2 | 5.16 |  |  |  |  |  |
| CO[C@@H]1[C@@H](O)C=C(Cl)C(=O)[C@]12CCc1cc(O)cc(Cl)c1O2 | 98.4 | 58.3 | 84.9 | 1.42 | 2.66 |  |
| O=C(O)[C@@H](O)[C@H]1OC(=O)[C@H](O)[C@H]1O [D-SACCHARIC ACID 1,4-LACTONE] | 11.6 |  |  | 56.7 |  | inhibition [6]: Active |
| CCCCOCC1=C[C@@H](O)[C@@H](O)[C@H](O)C1=O | 39.3 |  |  |  |  |  |
| O=C(O)c1cc(=O)c2ccccc2[nH]1 | 10.8 |  |  |  |  |  |
| Oc1cc(Cl)c(O)c(COCc2cc(O)cc(Cl)c2O)c1 | 101 | 56.6 | 88.6 | 0.58 | 0.71 |  |
| O=C1C(Cl)=C[C@H](O)[C@@H](O)[C@@]12CCc1cc(O)cc(Cl)c1O2 | 96.5 | 37 | 79.6 | 2.83 | 1.16 |  |
| Cc1cc2c(c(=O)o1)C[C@H]1C(=O)[C@@H](O)[C@H](O)[C@H](O)[C@H]1O2 | 25.6 |  |  |  |  |  |
| O=C1C(Cl)=C[C@H](O)[C@H](O)[C@@]12CCc1cc(O)cc(Cl)c1O2 | 86.3 | -0.33 | 52.6 | 2.15 | 4.43 |  |
| OCc1cc(O)cc(Cl)c1O |  | 70.4 | 94.1 |  |  | inhibition [7]: 101%; Ki (Beta-glucuronidase [8]): 0.58 µM; IC50 (Beta-glucuronidase [9]): 0.74 µM |
| C[C@H]1C[C@H](OCc2cc(O)cc(Cl)c2O)[C@@H](O)C[C@H]1O | 92.1 | 71.7 | 77.8 | 0.64 | 4.27 |  |
| C[C@H]1C[C@H](O)[C@@H](OCc2cc(O)cc(Cl)c2O)C[C@H]1O | 91.8 | -3.03 | 7.86 | 0.4 | 3.47 | inhibition [5]: Active |
| O=C(OCc1cc(O)cc(Cl)c1O)c1cnccc1O | 87.9 | 39.4 | 94.9 | 1.95 | 1.55 |  |
| CCC1=C[C@@H](O)[C@@H](O)[C@H](Cl)C1=O |  | 79.2 | 96.3 |  |  | inhibition [7]: 99.1%; Ki (Beta-glucuronidase [8]): 1.26 µM; IC50 (Beta-glucuronidase [9]): 1.26 µM |
| COCc1cccc(Cl)c1O | 7.73 |  |  |  |  |  |
